Tested on: d(AAAATTTT)2 (DNA, duplex) AAAATTTT
Assay: X-ray crystallography (2.1 Å)
Details: 8 mM MnCl2; 40 mM sodium cacodylate pH 6.5, 0.5 mM spermine, 5% MPD, 15 °C; 0.25 mM duplex, 0.75 mM CD27

binding: yes
SMILES: c1cc(Nc2ccc(NC3=NCCN3)cc2)ccc1NC1=NCCN1

From paper PMC4051503 (2014)
